Series [1] concerns IL-12-induced IFN-γ secretion in NK92 cells. As to the kind of experiment: Inhibition of IL-12-induced IFN-γ secretion in NK92 cells (ELISA). The class given is cell-based. Particulars: Homo sapiens, IL-12, 24 hours, read-out: IC50 (NK92_IL12/IFN-γ). As for the experimental part:
The effect of the compounds of the present invention on IFN-γ secretion induced by TYK2 in NK92 cells is evaluated by an enzyme-linked immunosorbent assay (ELISA) (Table 2).
IL-12 receptor is mainly expressed in activated T-cells, NK cells (NK92 is a NK cell line), DC cells, and B-cells. When binding to IL-12, it activates JAK2/TYK2 signal transduction pathway within NK cells and T lymphocytes, thereby inducing secretion of IFN-γ.
The experimental method is generally described below:
The 96-well plate is then incubated overnight in a 37° C./5% CO2 incubator.
The plate is centrifuged at 800 rpm for 10 minutes at room temperature and 50 μL of the supernatant from each well is transferred to another 96-well plate (Sigma, Cat No. CLS3695) coated with anti-IFN-γ antibody. The amount of IFN-γ secretion is detected following the instruction from the Human IFN-gamma DuoSet ELISA kit (R & D Systems, Cat No. DY285B). […] The percentage of inhibition on IL-12 induced IFN-γ secretion in NK-92 cells by the test compound is calculated using the following formula: […]
The IC50 value of the test compound is calculated from 8 concentration points using the XLfit software (ID Business Solutions Ltd., UK) by the following formula: […]
Where Y is the percentage of inhibition, X is the logarithm of the concentration of the test compound, Bottom is the bottom plateau value of the S-shaped curve, Top is the top plateau value of the S-shaped curve, and slope factor is the slope coefficient of the curve.

Series [2] in a line: In vivo rat PK determination. The settings on record: for F: PO (5 mpk) vs IV (1 mpk); for AUClast / Cmax: PO (5 mpk), n = 3. On the set-up: species or system Sprague Dawley rats. On the procedure:
The pharmacokinetics of Compound 3 of the present invention and the reference compound BMS-986165 were evaluated. Compound 3 has an OCD3 on a benzene ring, whereas the reference compound has an CD3 on an amide moiety. Methyl group is typically labile in vivo, subject to hydrolysis by amidase in the case of methylamide and to oxidative demethylation by CYPs in the case of methoxy and methyltriazole. Substituting methyl with tri-deuterated methyl improves the bioavailability and in vivo exposure of the compound and provides a better efficacy of the compound under the same dose.
Compound 3 and the reference compound in a 0.5 mg/mL solution containing 5% N,N-dimethylacetamide+20% solutol+75% saline were orally administered to three male Sprague Dawley rats at a dose of 5 mg/kg. Blood samples were collected at 0.25, 0.5, 1, 2, 4, 8 and 24 hours after administration. The concentrations of the compound in the plasma were quantified by LC-MS/MS using an API-4500 mass spectrometer. The limit of quantification (LOQ) of analysis was 1 ng/mL. The pharmacokinetic (PK) parameters were calculated by the non-compartmental method using WinNonlin and are present in Table 3.

Series [3] relates to anti-CD40 antibody-induced colitis. As to the kind of experiment: Anti-CD40 antibody-induced colitis animal model. Particulars: for Spleen weight, Mean: Day 8; for protection from colitis (body weight loss and spleen enlargement) versus vehicle group: Compound 3 at 1.5, 5 and 15 mg/kg, reference compound at 5 mg/kg, oral twice daily; for body weight loss after treatment in anti-CD40 colitis (IBD) model: mice. The format is in vivo, CB17-Scid mice. As for the experimental part:
The female CB17-Scid mice (8-10 weeks old, 18-20 g) from Beijing Vital River laboratory were randomly divided into 5 groups (n=8 per group). On Day 0, colitis was induced in mice each with a single intraperitoneal injection of 100 μg of FGK4.5 anti-CD40 mAb (BioXCell, Cat. No. EB0016-2) in PBS. […] On a daily basis, mice were weighed and monitored for signs of colitis including body weight loss and the accompanying loose stools and diarrhea. On Day 8, all animals were euthanized. Spleen tissues were collected and weighed.

Series [4] in a line: In vivo rat PK determination. Particulars: IV (1 mpk); for CL / Vss: n = 3; for T1/2: n = 3 (header span assumed). On the set-up: species or system Sprague Dawley rats.

Each structure is given as a SMILES string.

For the molecule `[2H]C([2H])([2H])NC(=O)c1nnc(NC(=O)C2CC2)cc1Nc1cccc(-c2ncn(C)n2)c1OC` [BMS-986165, reference compound], the IC50 in series [1] was determined as 0.017 µM. In series [2], this molecule had an F of 46%, an AUClast of 2828 ng·h/mL and a Cmax of 632 ng/mL. Also, in series [3] (5 mg/kg oral twice daily), the “Spleen weight, Mean” value is given as 0.036 g. In addition, the “protection from colitis (body weight loss and spleen enlargement) versus vehicle group” value in series [3] is listed as “significantly protected mice from colitis”. In series [4], the CL is 14 mL/min/kg, the Vss came to 1.5 L/kg and the T1/2 is 3.3 h.
Take `[2H]C([2H])([2H])NC(=O)c1nnc(NC(=O)C2CC2)cc1Nc1cccc(-c2ncn(C([2H])([2H])[2H])n2)c1OC` [Compound 1, 6-(cyclopropanecarboxamido)-4-((2-methoxy-3-(1-(methyl-d3)-1H-1,2,4-triazol-3-yl)phenyl)amino)-N-(methyl-d3)pyridazine-3-carboxamide]: in series [1], the IC50 is 0.016 µM.
On to `[2H]C([2H])([2H])n1cnc(-c2cccc(Nc3cc(NC(=O)C4CC4)nnc3C(=O)NC)c2OC)n1` [Compound 2, 6-(cyclopropanecarboxamido)-4-((2-methoxy-3-(1-(methyl-d3)-1H-1,2,4-triazol-3-yl)phenyl)amino)-N-methylpyridazine-3-carboxamide], for which the IC50 in series [1] came to 0.013 µM. For the same molecule, the “body weight loss after treatment in anti-CD40 colitis (IBD) model” value (shortened to “body weight loss after treatment”) in series [3] is recorded as “no significant body weight loss”.
For `[2H]C([2H])([2H])Oc1c(Nc2cc(NC(=O)C3CC3)nnc2C(=O)NC)cccc1-c1ncn(C)n1` [Compound 3, 6-(cyclopropanecarboxamido)-4-((2-(methoxy-d3)-3-(1-methyl-1H-1,2,4-triazol-3-yl)phenyl)amino)-N-methylpyridazine-3-carboxamide], the IC50 in series [1] came to 0.014 µM. Besides, in series [2], the F turned out to be 92%, the AUClast amounted to 6560 ng·h/mL and the Cmax was 971 ng/mL. Moreover, in series [2] (oral 5 mg/kg), the “in vivo exposure compared with reference compound” value was “better in vivo exposures than the reference compound”. Also, in series [3] (1.5 mg/kg oral twice daily), the “Spleen weight, Mean” value came to 0.060 g. Also, in series [3] (5 mg/kg oral twice daily), the “Spleen weight, Mean” value was 0.037 g. In series [3] (15 mg/kg oral twice daily), the “Spleen weight, Mean” value was 0.025 g. In series [3], the “protection from colitis (body weight loss and spleen enlargement) versus vehicle group” value is on record as “significantly protected mice from colitis”; the “body weight loss after treatment” value was “no significant body weight loss”. Besides, in series [4], the CL is 12 mL/min/kg, the Vss was determined as 1.1 L/kg and the T1/2 stood at 4.3 h.
As for `[2H]C([2H])([2H])NC(=O)c1nnc(NC(=O)C2CC2)cc1Nc1cccc(-c2ncn(C)n2)c1OC([2H])([2H])[2H]` [Compound 4, 6-(cyclopropanecarboxamido)-4-((2-(methoxy-d3)-3-(1-methyl-1H-1,2,4-triazol-3-yl)phenyl)amino)-N-(methyl-d3)pyridazine-3-carboxamide], in series [1], the IC50 came to 0.011 µM.
Consider `[2H]C([2H])([2H])NC(=O)c1nnc(NC(=O)[C@@H]2CC2(F)F)cc1Nc1cccc(-c2ncn(C)n2)c1OC` [Compound 5, (S)-6-(2,2-difluorocyclopropane-1-carboxamido)-4-((2-methoxy-3-(1-methyl-1H-1,2,4-triazol-3-yl)phenyl)amino)-N-(methyl-d3)pyridazine-3-carboxamide], for which the IC50 in series [1] is 0.052 µM. The “body weight loss after treatment” value in series [3] is listed as “no significant body weight loss”.
As to `CNC(=O)c1nnc(NC(=O)[C@@H]2CC2(F)F)cc1Nc1cccc(-c2ncn(C)n2)c1OC` [Compound 6, (S)-6-(2,2-difluorocyclopropane-1-carboxamido)-4-((2-methoxy-3-(1-methyl-1H-1,2,4-triazol-3-yl)phenyl)amino)-N-methylpyridazine-3-carboxamide], the IC50 in series [1] is 0.047 µM.
`[2H]C([2H])([2H])NC(=O)c1nnc(NC(=O)[C@H]2CC2(F)F)cc1Nc1cccc(-c2ncn(C)n2)c1OC` [Compound 7, (R)-6-(2,2-difluorocyclopropane-1-carboxamido)-4-((2-methoxy-3-(1-methyl-1H-1,2,4-triazol-3-yl)phenyl)amino)-N-(methyl-d3)pyridazine-3-carboxamide]: the IC50 in series [1] was 0.074 µM.

(Values after patent US11578058B2, “Heterocyclic compounds for inhibiting TYK2 activities” (Beijing InnoCare Pharma Tech Co., Ltd., priority 2020, dated 2023).)
